{
  "source": "patent US11433086B2",
  "about": "“Combination of T-cell checkpoint inhibitors with inhibitors of e-selectin or CXCR4, or with heterobifunctional inhibitors of both E-selectin and CXCR4” (GlycoMimetics, Inc., priority 2016, dated 2022)",
  "key": {"[1]": {"test_system": "Human E-selectin/Ig chimera", "assay": "Competitive binding assay, sLe^a-polyacrylamide conjugate to immobilized E-selectin", "details": "sLe^a-polyacrylamide/streptavidin-HRP conjugate", "procedure": "(§1) FIG. 21 relates to an experiment carried out to determine the competitive binding activity (IC50) of GMI-1359 against E-selectin and CXCR4. GMI-1359 was assessed for inhibition of sialyl Le^X binding to immobilized E-selectin and α-CXCR4 antibody binding to Raji cells.\nThe inhibition assay to screen GMI-1359 as an antagonist of E-selectin was a competitive binding assay, which allowed the determination of IC50 values. Human E-selectin/Ig chimera was immobilized by incubation at 37° C. for 2 hour in 96-well microtiter plates. To reduce nonspecific binding, BSA was added to each well and incubated at room temperature for 2 hours. After incubation with E-selectin/Ig chimera, the plate was washed and serial dilutions of the test compounds were added to the wells in the presence of conjugates of biotinylated, sLe^a-polyacrylamide with streptavidin/horseradish peroxidase and incubated for 2 hours at room temperature. To determine the amount of sLe^a bound to immobilized E-selectin after washing, the peroxidase substrate, 3,3′,5,5′ tetramethylbenzidin (TMB) was added. After 3 minutes, the enzyme reaction was stopped by the addition of H3PO4, and the absorbance of light at a wavelength of 450 nm was determined. […]"}, "CXCR4": {"target": "T1, CXCR4 (Homo sapiens, UniProt P61073)", "T1 construct": "host or cells: Raji cells", "T1 sequence (P61073 whole entry)": "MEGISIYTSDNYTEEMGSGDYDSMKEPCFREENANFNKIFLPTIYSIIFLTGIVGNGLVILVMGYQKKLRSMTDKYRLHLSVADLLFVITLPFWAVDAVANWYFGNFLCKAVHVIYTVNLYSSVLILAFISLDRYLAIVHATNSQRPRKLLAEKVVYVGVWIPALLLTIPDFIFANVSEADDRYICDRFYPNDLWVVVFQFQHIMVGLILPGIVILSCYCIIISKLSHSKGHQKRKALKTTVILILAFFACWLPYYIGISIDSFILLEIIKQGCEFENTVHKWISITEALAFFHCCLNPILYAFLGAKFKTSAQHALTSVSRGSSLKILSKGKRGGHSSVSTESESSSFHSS", "assay": "Flow based competitive binding assay, anti-CXCR4 antibody binding to Raji cells", "details": "phycoerythrin-conjugated anti-CXCR4 antibody", "procedure": "as §1\nThe inhibition assay to screen GMI-1359 as an antagonist of CXCR4 was a flow based competitive binding assay, which allowed the determination of […] values. Raji cells (ATCC number TIB-152) were washed twice with Hanks Balanced Saline Solution (HBSS) containing 0.05% bovine serum albumin (BSA). After the second wash, the cells were resuspended to about 2.5×10^6 cells per mL and 80 μl of cells (approximately 2×10^5 cells) were added to BD 2063 tubes. Next, 10 μl of either GMI-1359 or HBSS/BSA (as a negative control) were added to the cells and the tube was placed at room temperature for 10 minutes. Then, 10 μl of a phycoerythrin-conjugated anti-CXCR4 antibody (R&D Systems, FAB170P) or as a negative control, 10 μl of an isotype control antibody (R&D Systems, IC003P) was added to the cells with HBSS/BSA. The antibodies were allowed to bind to the cells for 1 hour at 4° C. […] Binding of the anti-CXCR4-PE antibody to the cells was assessed by flow cytometry, and the median fluorescent intensity was determined. […]"}},
  "data": [
    {"compound": "CCC1CC(C(=O)NCCNCc2ccc(CN3CCCNCCNCCCNCC3)c(Br)c2)CC(OC2OC(CO)C(O)C(O[C@@H](CC3CCCCC3)C(=O)O)C2NC(C)=O)C1OC1OC(C)C(O)C(O)C1O", "note": "(some centres unmarked) [GMI-1359]", "values": [
      {"measurement": "inhibition of ligand binding to E-selectin", "setting": "[1]", "value": "inhibits ligand binding"},
      {"measurement": "inhibition of anti-CXCR4 antibody binding", "setting": "CXCR4", "value": "inhibits ligand binding"}
    ]}
  ]
}
